Laboratory results: patent publication US7604990B2, “Methods of regulating differentiation in stem cells” (ES Cell International Pte Ltd., priority 2002, dated 2009)
“Also recorded” adds a separate entry of the source.

Legend:
Assay type in all cases: cell-based, human
[1] = test system: hES cells; test: ELISA-based GCTM-2 quantification in hES cells (Example 2)
Experimental: (§1) hES-3 cells were cultured as previously described^1. The serum-free culture medium consisted of DMEM (without sodium pyruvate, glucose 4500 mg/l, Invitrogen, Mount Waverley, VIC, Australia) supplemented with insulin/transferrin/selenium 1%, β-mercaptoethanol 0.1 mM, NEAA 1%, glutamine 2 mM, Hepes 25 mM, penicillin 50 U/ml and streptomycin […] (all from Invitrogen). Media was changed every 2 days and cells were passaged every week S1P and dihydro-S1P were obtained from Biomol (Plymouth Meeting, Pa., USA). LPA was obtained from Sigma (Castle Hill, NSW, Australia). Extemporaneous dilutions of all lipids were made in water containing 0.1% fatty acid-free bovine serum albumin (BSA) (Sigma). S1P and dihydro-S1P were used at 10 mM. Human PDGF-AB, PDGF-AA, PDGF-BB were from Prepro Tech Inc. (Rocky Hill, N.J., USA) and were used at 20 ng/ml.
Cells were fixed in 100% ethanol and immunostained with GCTM-2 followed by alkaline phosphatase-coupled secondary antibodies (Dako). Alkaline phosphatase activity was detected by adding a solution of 4-nitrophenyl phosphate (Roche), and the concentration of the reaction product was determined by reading the optical density (OD) at 405 nm. In order to validate the technique as an accurate indicator of the proportion of GCTM-2 positive cells, standard curves were carried out with the embryonal carcinoma cell line GCT27C4, known to express GCTM-2^20.

[2] = test system: ERKs (Erk1 and Erk2) in hES cells; test: ERK phosphorylation Western blot in hES cells (Example 1)
Experimental: RT-PCR for LPL receptors (A, B), PDGFR-[…] (alpha) and PDGFR-[…] (beta) (C), SPK-1 and SPK-2 (D), with (+) or without (−) RT. Immunostaining of hES cells with Hoechst 33342 (E, H), PDGFR-[…] (F) or PDGFR-[…] (I) and GCTM-2 (G, J) antibodies. S1P, LPA and PDGF stimulate ERKs phosphorylation in hES cells. (K) Western blots experiment were performed using protein lysate from hES cells. Cells were pre-treated or not with U0126 (30 μM, 1 hr) and incubated for 5 min in the absence (C, control) or presence of S1P (S, 10 μM), LPA (L, […]) or PDGF (P, 20 ng/ml). The phosphorylation of Erk1 and Erk2 (P-Erk1 and P-Erk2) was assessed by immunoblotting with a polyclonal anti-active MAP kinase as described in Materials and Methods. After a stripping procedure, the same blots were reprobed with a monoclonal anti-MAP kinase, allowed the detection of Erk1 and Erk2.
hES-3 cells plated without MEF for 24 hrs were depleted of serum for a further 18 hrs. Cells pre-treated or not with U0126 (Sigma, 30 μM, 1 hr), were incubated in the presence of the different agents for 5 min and were lysed by removal of the supernatants and addition of a reducing loading buffer containing 1 mM sodium orthovanadate (Sigma). Protein lysates (approx. 80 μg) were separated by SDS-polyacrylamide gel electrophoresis (10% polyacrylamide, w/v), transferred to nitrocellulose (Hybond-nitrocellulose, Amersham) and immunoblotting was carried out using rabbit polyclonal anti-active mitogen-activated protein (MAPK) antibodies raised against a dually phosphorylated MAPK peptide (Promega, Madison, Wis., USA). Peroxidase-coupled secondary antibody (Dako) was detected by exposure of autoradiographic films in the presence of a chemiluminescent detection reagent (ECL, Amersham). Stripping of antibodies was achieved and membranes were then reprobed with rabbit polyclonal anti-ERK1/2 antibodies (Promega), and then with peroxidase-coupled secondary antibodies (Dako). Membranes probed with either rabbit polyclonal anti-active p38 (Promega) or rabbit polyclonal anti-active JNK (Promega) antibodies were also performed, using the same procedure as described above.

[3] = test system: ERKs (Erk1 and Erk2) in hES cells; test: ERK phosphorylation Western blot in hES cells (Example 5); settings: U0126 30 μM, 1 hr pre-treatment
Experimental: Western blots experiments were performed using protein lysate from hES cells. (A) Cells were pre-treated or not with U0126 (30 μM, 1 hr) and incubated for 5 min in the absence (C, control) or presence of S1P (10 μM). (B) Cells were incubated for different time periods in the absence or presence of S1P (10 μM). (C) Cells were incubated for 5 min with various concentrations of S1P. The phosphorylation of Erk1 and Erk2 (P-Erk1 and P-Erk2) was assessed by immunoblotting with a polyclonal anti-active MAP kinase as described in Materials and Methods. After a stripping procedure, the same blots reprobed with a monoclonal anti-MAP kinase, allowed the detection of Erk1 and Erk2.
For immunoblot analysis, cells were transferred into 24 well plates (8 colonies per well) without MEFs, and 24 hr later, were grown in the absence of serum for 18 hrs.
In some experiments, cells were pre-treated for 1 hr with U0126 (30 μM) or for 18 hrs with PTX (100 μg/ml).
hES3 cells were lysed following removal of the supernatants by addition of a reducing loading buffer (2% SDS, 62.5 mM Tris pH 6.8, 0.1 M DTT, 0.01% bromophenol blue) containing 1 mM sodium orthovanadate. Samples were boiled for 10 min and centrifuged at 13000 g for 15 min, and protein lysates (approx. 80 μg) were separated by SDS-polyacrylamide gel electrophoresis (10% polyacrylamide, w/v). Proteins were transferred to nitrocellulose (Hybond-ECL, Amersham) and immunoblotting was carried out with rabbit polyclonal anti-active mitogen-activated protein (MAPK) antibodies raised against a dually phosphorylated MAPK peptide (Promega, Madison, Wis., USA). Peroxidase-coupled secondary antibody (Dako) was detected by exposure of autoradiographic films in the presence of a chemiluminescent detection reagent (ECL, Amersham). Stripping of antibodies was achieved by incubating the membrane during 30 min at 50° C. in a buffer containing 100 mM mercaptoethanol, 2% SDS, 62.5 mM Tris-HCl pH 6.7. The membrane was then reprobing with rabbit polyclonal anti-ERK1/2 antibodies (Promega), and then with peroxidase-coupled secondary antibodies (Dako).

[4] = test system: hES cells; test: Spontaneous differentiation of hES colonies on MEF in serum-free medium, morphology (Example 1); settings: 8 days serum-free on MEF; S1P 10 μM, PDGF 20 ng/ml, LPA up to 50 μM
Experimental: (A) hES cells grown with MEF, before the depletion of serum from the medium. (B, C, D, E) hES cells grown without serum after 8 days, in the absence (B) or in the presence of S1P (10 μM) (C), PDGF (20 ng/ml) (D), S1P (10 μM) plus PDGF (20 ng/ml) (E). (F) hES cells grown without serum, in the presence or in the absence (control) of S1P (10 μM), PDGF (20 ng/ml), S1P (10 μM) plus PDGF (20 ng/ml). In A-E, data are representative of at least 3 independent experiments. In F, data expressed as percentages of alkaline phosphatase activity in absence of serum for eight days (% of control), are the means±SEM of at least 2 independent experiments, each run in triplicate.
hES-3 cells were cultured as previously described^1. The serum-free culture medium consisted of DMEM (without sodium pyruvate, glucose 4500 mg/l, Invitrogen, Mount Waverley, VIC, Australia) supplemented with insulin/transferrin/selenium 1%, β-mercaptoethanol 0.1 mM, NEAA 1%, glutamine 2 mM, Hepes 25 mM, penicillin 50 U/ml and streptomycin […] (all from Invitrogen). Medium was changed every 2 days and cells were passaged every week. S1P and dihydro-S1P were obtained from Biomol (Plymouth Meeting, Pa., USA) and were dissolved in methanol. LPA was obtained from Sigma (Castle Hill, NSW, Australia) and was dissolved in ethanol. Extemporaneous dilutions of all lipids were made in water containing 0.1% fatty acid-free bovine serum albumin (BSA) (Sigma). Human PDGF-AB, PDGF-AA, PDGF-BB were from PreproTech Inc. (Rocky Hill, N.J., USA).

[5] = test system: hES cells; test: Direct observation of hES colonies in serum-depleted medium (Example 4)
Experimental: (A) hES cells grown with feeder, before the depletion in serum. (B) hES cells grown without serum after 8 days (B, C) and 12 days (D, E), in absence (B, D) or presence of S1P (C, E, 10 μM).
For direct observation, hES-3 cells were coated into 12-well plates (3 colonies per well), with or without mouse embryonic feeders (MEFs). The day following the plating, cells were incubated with the different agents in serum free medium containing insulin, transferring and selenium. Media was changed the 2nd day and then every 2 days.

[6] = test system: hES cells; test: Spontaneous differentiation of hES colonies on MEF in serum-free medium, morphology (Example 2); settings: 2 weeks serum-free on MEF; S1P 10 μM, PDGF-AB 20 ng/ml, LPA up to 50 μM
Experimental: as §1, with “S1P and dihydro-S1P were used at 10 mM.” left out

## CCCCCCCCCCCCC/C=C/[C@@H](O)[C@H](CO)N(C)C [DMS, dimethylsphingosine]
[1]; DMS 3 µM for 7 days
  effect on PDGF and S1P action (GCTM2): inhibited the effect of PDGF and S1P

## N#CC(=C(/N)Sc1ccccc1N)/C(C#N)=C(\N)Sc1ccccc1N [U0126]
[1]; U0126 10 mM for 7 days
  effect on PDGF and S1P action on GCTM2 expression: totally inhibited
[2]; U0126 30 μM, 1 hr pre-treatment
  effect on S1P-, LPA- and PDGF-stimulated phosphorylation of ERKs: totally inhibited
[3]
  effect on S1P-stimulated phosphorylation of ERKs: totally inhibited

## lysophosphatidic acid [LPA]
[4]
  colony growth/morphology (spontaneous differentiation): did not have an obvious effect on growth of the colonies
[5]; S1P 10 μM 8 days, LPA up to 50 μM 12 days
  growth/differentiation of hES colonies on MEFs: did not seem to affect the growth of the colonies; also recorded: inactive
[5]; without MEFs, n=3
  effect on cell differentiation, hES cells grown without MEFs: lack of effect
[6]
  size or morphology of hES cell colonies (spontaneous differentiation): no obvious effect on size or morphology
[2]; hES cells, 5 min, S1P 10 μM, LPA 50 M, PDGF 20 ng/ml
  phosphorylation of ERKs: stimulated the phosphorylation of ERKs
